How the values were obtained:
Format in all cases: in vivo, human
[1] = system: lupus nephritis; experiment: Pharmacodynamic dosing (eGFR-based dose reduction): CR/PR in patients with and without dose reduction
Method: To determine the efficacy of the pharmacodynamic protocol wherein dosage is reduced or stopped according to the presence or absence of indicators of the decrease in eGFR experienced as a side effect, these three groups of patients were assessed after 24 weeks and 48 weeks of treatment with respect to whether treatment was altered according to the invention protocol.
In this study, CR was defined as a composite of UPCR ≤0.5 mg/mg; eGFR >60 mL/min/1.73 m^2 or within 20% of baseline, steroids at ≤10 mg/day and no administration of rescue medication. PR is defined as UPCR reduction of 50% from baseline and no use of rescue medication.

[2] = system: lupus nephritis; experiment: Predictability of week 48 partial remission from early C3 normalization (Table 10)
Text: PR is defined as at least 50% reduction in proteinuria (i.e. UPCR).
Sensitivity is defined as the probability that a subject showing PR at 48 weeks would have shown a favorable result with regard to the marker at the designated early time point. In the tables below, this is the ratio of the number of subjects with favorable marker results (early drop or normalization) to the total subjects with 48 week PR.
Specificity is defined as the probability that a subject not showing PR at 48 weeks would have shown an unfavorable result with regard to the marker at the designated early time point. In the tables below, this is the ratio of the number of subjects with unfavorable marker results (no early drop or no normalization) to the total subjects with no 48 week PR.
Positive predictive value is defined as the probability that a subject showing a favorable result with respect to the marker at an earlier time point would show PR at 48 weeks. In the tables below, this is the ratio of the number of subjects with favorable marker results who have 48 week PR to those with favorable marker results (early reduction or yes column).
Negative predictive value is defined as the probability that a subject showing an unfavorable result with respect to the marker at an earlier time point would not show PR at 48 weeks. In the tables below, this is the ratio of the number of subjects with unfavorable marker results who have no PR at 48 weeks to the total subjects with unfavorable marker results (no early reduction or no column).
Another criterion for effectiveness is normalization of C3 and/or C4 concentration in blood. The normal concentration of C3 is 90 mg/dl or greater and for C4 16 mg/dl or greater.

[3] = system: lupus nephritis; experiment: Low dosage protocol (15.8 mg or 7.9 mg BID)
[4] = 24 weeks, High Dose (39.5 mg BID)
[5] = 24 weeks, Low Dose (23.7 mg BID)
[6] = 48 weeks, High Dose (39.5 mg BID)
[7] = 48 weeks, Low Dose (23.7 mg BID)
[8] = patients with dose reductions (pharmacodynamically dosed), High Dose (39.5 mg BID)
[9] = patients with dose reductions (pharmacodynamically dosed), Low Dose (23.7 mg BID)
[10] = patients with no dose reductions, High Dose (39.5 mg BID)
[11] = patients with no dose reductions, Low Dose (23.7 mg BID)

C=C/C=C/C[C@@H](C)[C@@H](O)[C@H]1C(=O)N[C@@H](CC)C(=O)N(C)CC(=O)N(C)[C@@H](CC(C)C)C(=O)N[C@@H](C(C)C)C(=O)N(C)[C@@H](CC(C)C)C(=O)N[C@@H](C)C(=O)N[C@H](C)C(=O)N(C)[C@@H](CC(C)C)C(=O)N(C)[C@@H](CC(C)C)C(=O)N(C)[C@@H](C(C)C)C(=O)N1C [voclosporin]
Patients with Dose Reduction [1, 4]: 47 (53.4) n(%) | Patients with no Dose Reduction [1, 4]: 41 (46.6) n(%) | Patients with Dose Reduction [1, 5]: 39 (43.8) n(%) | Patients with no Dose Reduction [1, 5]: 50 (56.2) n(%) | Patients with Dose Reduction [1, 6]: 53 (60.2) n(%) | Patients with no Dose Reduction [1, 6]: 35 (39.8) n(%) | Patients with Dose Reduction [1, 7]: 46 (51.7) n(%) | Patients with no Dose Reduction [1, 7]: 43 (48.3) n(%) | Patients with CR at 24 weeks [1, 8]: 13 (27.7) n(%) | Patients with CR at 48 weeks [1, 8]: 24 (45.3) n(%) | Patients with PR at 24 weeks [1, 8]: 34 (72.3) n(%) | Patients with PR at 48 weeks [1, 8]: 41 (77.4) n(%) | Patients with CR at 24 weeks [1, 9]: 14 (35.9) n(%) | Patients with CR at 48 weeks [1, 9]: 24 (52.2) n(%) | Patients with PR at 24 weeks [1, 9]: 28 (71.8) n(%) | Patients with PR at 48 weeks [1, 9]: 35 (76.1) n(%) | Patients with CR at 24 weeks [1, 10]: 11 (26.8) n(%) | Patients with CR at 48 weeks [1, 10]: 11 (31.4) n(%) | Patients with PR at 24 weeks [1, 10]: 24 (58.5) n(%) | Patients with PR at 48 weeks [1, 10]: 22 (62.9) n(%) | Patients with CR at 24 weeks [1, 11]: 15 (30.0) n(%) | Patients with CR at 48 weeks [1, 11]: 20 (46.5) n(%) | Patients with PR at 24 weeks [1, 11]: 34 (68.0) n(%) | Patients with PR at 48 weeks [1, 11]: 26 (60.5) n(%) | No Week 48 Partial Remission No Normalization ([2]; week 12, 23.7 mg BID): 10 | No Week 48 Partial Remission Normalization ([2]; week 12, 23.7 mg BID): 8 | Normalization Yes ([2]; week 12, 23.7 mg BID): 31 | No Week 48 Partial Remission No Normalization ([2]; week 12, 39.5 mg BID): 10 | No Week 48 Partial Remission Normalization ([2]; week 12, 39.5 mg BID): 7 | No Week 48 Partial Remission No Normalization ([2]; week 24, 23.7 mg BID): 8 | Normalization Yes ([2]; week 24, 23.7 mg BID): 30 | Week 48 Partial Remission No Normalization ([2]; week 24, 23.7 mg BID): 33 | No Week 48 Partial Remission No Normalization ([2]; week 48, 23.7 mg BID): 8 | No Week 48 Partial Remission Normalization ([2]; week 48, 23.7 mg BID): 2 | Normalization Yes ([2]; week 48, 23.7 mg BID): 27 | No Week 48 Partial Remission No Normalization ([2]; week 48, 39.5 mg BID): 9 | No Week 48 Partial Remission Normalization ([2]; week 48, 39.5 mg BID): 7 | remission at reduced dosage ([3]; dosage lowered to 7.9 mg BID quite early in the treatment): Substantial numbers of subjects showed complete or partial remission | remission at reduced dosage ([3]; dosage reduced almost immediately to 15.8 mg BID): a substantial portion of subjects showed substantial remission
